Results taken from patent US8324238B2.
Read-outs that look alike come from different tables or passages of the source. Values belong to the compound of their own block, whether it stands above or below them.

Columns and labels:
[1] = system: gram positive bacteria, gram negative bacteria, methicillin resistant bacteria, penicillin resistant bacteria, and the known quinolone resistant strains; conditions: cited from earlier work
[2] = Solubility of various salt forms in various solvents at room temperature (Example 4A); type: physicochemical; conditions: read-out: Salt Form Solubility
[3] = See Korean Patent No. 10-566346; cited from earlier work
[4] = Solubility of various salts in distilled water, converted into free base (Example 4B); conditions: room temperature, converted into the corresponding solubilities of free base
[5] = mouse, in vivo
Procedure: Seven week old male mice (ICR CD-1), 28-31 g of body weight upon receipt, are used.
Blood is sampled at 0.25, 0.5, 1, 1.5, 2, 3, 4, and 5 hours after dosing by orbital puncture.

[6] = Pharmacokinetic study after intravenous administration in rats (Example 10); conditions: 10 mg/kg i.v. in male SD rats
[7] = in vivo
male ICR mice = test: Mouse toxicity test, intraperitoneal (Example 6)
Procedure: Male ICR mice are divided into six dose groups (five mice per group), and then fasted (no food is given except water) for 24 hours. […] A median lethal dose (LD50), an approximate lethal dose, and a maximum tolerate dose are determined after observation for 14 days.
Necropsy and histopathology findings are also performed.

[8] = system: Bone Marrow Cells of Male Mice; test: Micronucleus test in bone marrow cells of male mice (Example 14); conditions: 70 mg/kg intraperitoneally
Procedure: 70 mg/kg intraperitoneally administration of CPA is used as a positive control dosage (seven male ICR mice are used in each group). Twenty-four hours after single injection administration, all animals are sacrificed and the changes on the number of polychromatic erythrocyte with one or more nuclei (MNPCE) are evaluated with the changes on the total white blood cells and difference counts on the neutrophils and lymphocytes on the prepared blood. In addition, PCE/(PCE+normochromatic erythrocytes (NCE)) ratio are calculated by counting 500 erythrocytes for detecting possibility of cytotoxicity.

[9] = male ICR mice, intraperitoneal, 14 days observation
[10] = male, ICR, mouse, in vivo, ip, 14 days
[11] = 24 hours after single injection

Compound: CON=C1CN(c2nc3c(cc2F)c(=O)c(C(=O)O)cn3C2CC2)CC12CNC2 [Parent Compound]
Antimicrobial activity [1]: excellent antimicrobial activity
Solubility ([2]; aqueous solution with a pH of 1.2, simulated gastric fluid, pH 1.2, room temperature): 7700 µg/mL
Solubility ([2]; aqueous solution with a pH of 6.8, aqueous buffer, pH 6.8, room temperature): 38 µg/mL
Solubility ([2]; solvent of pH 4.0, aqueous buffer, pH 4.0, room temperature): 6490 µg/mL
Aqueous solubility [3]: low

Solubility [4]: 20 µg/mL
Compound: [Mg] [Magnesium]

Compound: O=C(O)c1ccccc1O [Salicylate]
Solubility [4]: 110 µg/mL

Compound: Mandelate
Solubility [4]: 1010 µg/mL

Compound: CON=C1CN(c2nc3c(cc2F)c(=O)c(C(=O)O)cn3C2CC2)CC12CNC2.Cl [Hydrochloride]
C last ([5]; iv, 10 mg/kg): 67 ng/mL
Half-life ([5]; iv, 10 mg/kg): 1.259 h
T last ([5]; iv, 10 mg/kg): 4.0 h
Half-life ([5]; po, 100 mg/kg): 2.205 h
AUC 0-5 hr [6]: 6.070 ± 0.731
AUC inf [6]: 6283 ± 804 ng·h/mL
C last [6]: 137 ± 42 ng/mL
Half-life [6]: 1.061 ± 0.093 h
T last [6]: 5.0 ± 0.0 h
Fibrous peritonitis [7]: severe fibrous peritonitis
Approximate lethal dose (male ICR mice; [9]): 250 to 500 mg/kg
Maximum tolerate dose (male ICR mice; [9]): 250 mg/kg
Median lethal dose (male ICR mice; [9]): 481.93 mg/kg

Solubility [4]: 180 µg/mL
Compound: Maleate

Solubility [4]: 630 µg/mL
Compound: Fumarate

Compound: CON=C1CN(c2nc3c(cc2F)c(=O)c(C(=O)O)cn3C2CC2)CC12CNC2 [Phosphate]
Approximate lethal dose (male ICR mice; [9]): 250 to 500 mg/kg
Median lethal dose (male ICR mice; [9]): 356.91 mg/kg
Maximum tolerate dose (male ICR mice; [10]): 250 mg/kg

Compound: CON=C1CN(c2nc3c(cc2F)c(=O)c(C(=O)O)cn3C2CC2)CC12CNC2 [Methanesulfonate]
Approximate lethal dose (male ICR mice; [9]): 500 to 1000 mg/kg
Median lethal dose (male ICR mice; [9]): 716.24 mg/kg
Maximum tolerate dose (male ICR mice; [10]): 500 mg/kg

Compound: O=P1(N(CCCl)CCCl)NCCCO1 (stereo not shown) [CPA, cyclophosphamide]
MNPCEs 2000 PCEs [8, 11]: 71.86 ± 10.43
PCE(PCE + NCE) ratio [8, 11]: 0.36 ± 0.07
Proportions among 100 leukocytes (%) Lymphocytes [8, 11]: 75.71 ± 9.20%
Proportions among 100 leukocytes (%) Neutrophils [8, 11]: 21.71 ± 9.45%
Total leukocyte numbers [8, 11]: 2.36 ± 0.55 ×10^3 cells mm^3
Change of MNPCE ([8]; CPA treated group): significant increase of MNPCE
Loss of Locomotion ([8]; male ICR mice, single): 0/7
Mortality ([8]; male ICR mice, single): 0/7

Compound: CON=C1CN(c2nc3c(cc2F)c(=O)c(C(=O)O)cn3C2CC2)CC12CNC2 [Formate]
Approximate lethal dose (male ICR mice; [9]): 500 to 1000 mg/kg
Median lethal dose (male ICR mice; [9]): 716.24 mg/kg
Maximum tolerate dose (male ICR mice; [10]): 500 mg/kg
